pIC50: −log10 of the molar value.
Columns and labels:
[1] = test system: MM.1R cells (dexamethasone-resistant human multiple myeloma cells); experiment: Tumor cell proliferation inhibition, CCK-8; type: cell-based; conditions: MM.1R cells, CCK-8, read-out: inhibitory activity (IC50, nM) MM.1R
Outline: (§1)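 Growth inhibition is measured by CCK-8 cell viability; IC50 is calculated from the dose–response curve. Compounds are added 24 h after seeding, starting at 10 μM and diluted 5-fold across 10 concentrations.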

[2] = test system: Jurkat cells (human T-cell leukemia cells); experiment: Tumor cell proliferation inhibition, CCK-8; type: cell-based; conditions: Jurkat cells, CCK-8, read-out: inhibitory activity (IC50, nM) Jurkat
Outline: as §1

[3] = test system: TMD8 cells (human diffuse large B-cell lymphoma cells); experiment: Tumor cell proliferation inhibition, CCK-8; type: cell-based; conditions: TMD8 cells, CCK-8, read-out: inhibitory activity (IC50, nM) TMD8
Outline: as §1

[4] = test system: CAL-62 (human thyroid carcinoma cells); experiment: Tumor cell proliferation inhibition, CCK-8; type: cell-based; conditions: CAL-62 cells, CCK-8, read-out: inhibitory activity (IC50, nM) CAL-62
Outline: as §1

[5] = test system: CCRF-CEM (human acute lymphoblastic leukemia T-cells); experiment: Tumor cell proliferation inhibition, CCK-8; type: cell-based; conditions: CCRF-CEM cells, CCK-8, read-out: inhibitory activity (IC50, nM) CCRF-CEM
Outline: as §1

[6] = test system: H146 cells (human small cell lung carcinoma cells); experiment: Tumor cell proliferation inhibition, CCK-8; type: cell-based; conditions: NCI-H146, H146 cells, CCK-8, read-out: inhibitory activity (IC50, nM) H146
Outline: as §1

[7] = test system: MDA-MB-231 cells (human breast adenocarcinoma cells); experiment: Tumor cell proliferation inhibition, CCK-8; type: cell-based; conditions: MDA-MB-231 cells, CCK-8, read-out: inhibitory activity (IC50, nM) MDA-MB-231
Outline: as §1

[8] = test system: MM.1S cells (human multiple myeloma cells); experiment: Tumor cell proliferation inhibition, CCK-8; type: cell-based; conditions: MM1.S, MM.1S cells, CCK-8, read-out: inhibitory activity (IC50, nM) MM.1S
Outline: as §1

[9] = test system: Kasumi-1 (human acute myeloid leukemia cells); experiment: Tumor cell proliferation inhibition, CCK-8; type: cell-based; conditions: Kasumi-1 cells, CCK-8, read-out: inhibitory activity (IC50, nM) Kasumi-1
Outline: as §1

[10] = target: human Cereblon WT GST-tagged protein (Homo sapiens (Human), UniProt Q96SW2); experiment: CRBN-binding affinity, HTRF (CEREBLON BINDING kit, CISBIO); conditions: HTRF inhibitory activity
Sequence of human Cereblon WT GST-tagged protein (Q96SW2 whole entry): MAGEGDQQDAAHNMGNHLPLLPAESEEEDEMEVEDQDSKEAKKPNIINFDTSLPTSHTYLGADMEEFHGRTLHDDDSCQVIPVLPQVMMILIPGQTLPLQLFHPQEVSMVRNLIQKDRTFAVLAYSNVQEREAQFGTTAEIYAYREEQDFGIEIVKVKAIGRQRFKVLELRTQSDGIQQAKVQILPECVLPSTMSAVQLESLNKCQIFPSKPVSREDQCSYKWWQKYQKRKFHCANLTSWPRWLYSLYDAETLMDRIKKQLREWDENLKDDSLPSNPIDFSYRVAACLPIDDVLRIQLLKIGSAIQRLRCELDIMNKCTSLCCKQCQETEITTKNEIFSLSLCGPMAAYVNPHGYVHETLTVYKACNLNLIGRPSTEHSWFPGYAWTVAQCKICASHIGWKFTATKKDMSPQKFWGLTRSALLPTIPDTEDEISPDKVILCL
Outline: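 Compounds were mixed with GST-tagged human Cereblon WT protein, then with Thalidomide-Red tracer and GST Eu antibody, and binding was read by HTRF. Inhibition rate was calculated from 620 nm emission relative to blank control wells (no protein) and solvent control wells.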

[11] = target: IKZF1 (Homo sapiens (Human), UniProt Q13422+Q96SW2); experiment: Western blot, substrate protein expression in hPBMC: IKZF1; type: cell-based; conditions: hPBMC, compound 500 nM, 24 hours, Western blot
Sequence of IKZF1 (Q13422 whole entry): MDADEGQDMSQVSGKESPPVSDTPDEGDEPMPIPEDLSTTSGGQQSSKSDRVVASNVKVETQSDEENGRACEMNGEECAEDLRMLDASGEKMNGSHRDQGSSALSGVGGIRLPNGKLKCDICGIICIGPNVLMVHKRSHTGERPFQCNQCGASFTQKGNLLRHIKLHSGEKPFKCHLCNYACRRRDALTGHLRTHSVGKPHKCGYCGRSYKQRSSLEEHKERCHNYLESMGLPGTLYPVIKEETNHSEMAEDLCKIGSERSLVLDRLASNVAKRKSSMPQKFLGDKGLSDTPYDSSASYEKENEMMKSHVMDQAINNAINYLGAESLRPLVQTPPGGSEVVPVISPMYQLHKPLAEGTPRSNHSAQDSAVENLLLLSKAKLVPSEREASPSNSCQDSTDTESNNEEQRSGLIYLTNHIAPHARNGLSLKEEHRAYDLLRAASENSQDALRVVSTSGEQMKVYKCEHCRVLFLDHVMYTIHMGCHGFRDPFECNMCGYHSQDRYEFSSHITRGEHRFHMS
Sequence of IKZF1 (Q96SW2 whole entry): as the sequence (Q96SW2 whole entry) above
Sequence of IKZF1 (Q16531 whole entry partner): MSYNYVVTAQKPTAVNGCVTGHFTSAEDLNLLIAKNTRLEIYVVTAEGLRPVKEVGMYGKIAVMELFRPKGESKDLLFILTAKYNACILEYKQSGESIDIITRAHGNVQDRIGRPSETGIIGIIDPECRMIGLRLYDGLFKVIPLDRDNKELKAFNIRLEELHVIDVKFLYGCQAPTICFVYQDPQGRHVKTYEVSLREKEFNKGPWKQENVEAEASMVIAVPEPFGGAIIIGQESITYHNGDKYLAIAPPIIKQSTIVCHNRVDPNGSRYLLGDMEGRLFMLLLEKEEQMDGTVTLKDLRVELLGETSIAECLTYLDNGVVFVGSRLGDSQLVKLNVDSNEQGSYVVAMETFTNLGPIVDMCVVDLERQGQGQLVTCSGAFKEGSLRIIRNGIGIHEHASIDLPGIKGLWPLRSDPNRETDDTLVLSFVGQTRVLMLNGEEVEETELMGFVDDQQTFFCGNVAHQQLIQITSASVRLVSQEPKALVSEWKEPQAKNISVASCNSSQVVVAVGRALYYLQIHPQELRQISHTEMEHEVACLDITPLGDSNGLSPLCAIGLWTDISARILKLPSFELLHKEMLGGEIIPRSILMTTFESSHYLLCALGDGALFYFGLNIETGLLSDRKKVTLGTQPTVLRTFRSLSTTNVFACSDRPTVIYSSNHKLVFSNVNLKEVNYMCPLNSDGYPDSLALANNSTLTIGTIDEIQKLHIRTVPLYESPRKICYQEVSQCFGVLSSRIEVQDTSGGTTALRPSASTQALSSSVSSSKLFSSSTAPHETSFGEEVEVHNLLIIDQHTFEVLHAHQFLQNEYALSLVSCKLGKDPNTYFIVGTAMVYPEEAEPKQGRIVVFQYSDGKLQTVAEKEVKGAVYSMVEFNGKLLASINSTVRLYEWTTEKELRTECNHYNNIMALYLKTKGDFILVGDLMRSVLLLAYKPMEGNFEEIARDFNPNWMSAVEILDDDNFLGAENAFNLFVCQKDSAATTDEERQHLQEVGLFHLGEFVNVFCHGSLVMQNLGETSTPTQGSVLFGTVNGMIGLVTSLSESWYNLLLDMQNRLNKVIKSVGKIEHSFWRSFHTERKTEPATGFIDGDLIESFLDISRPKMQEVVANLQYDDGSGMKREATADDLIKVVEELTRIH
Outline: (§2)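 hPBMC, 1×10^6 cells/mL, 24 h compound exposure; RIPA lysis, BCA protein assay, SDS-PAGE, NC membrane immunoblot. Densitometry vs internal control → % protein remaining; degradation % = 100% − remaining; DC50 = conc. at 50% of DMSO band signal.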

[12] = target: IKZF3 (Homo sapiens (Human), UniProt Q96SW2+Q9UKT9); experiment: Western blot, substrate protein expression in hPBMC: IKZF3; type: cell-based; conditions: hPBMC, compound 500 nM, 24 hours, Western blot
Sequence of IKZF3 (Q9UKT9 whole entry): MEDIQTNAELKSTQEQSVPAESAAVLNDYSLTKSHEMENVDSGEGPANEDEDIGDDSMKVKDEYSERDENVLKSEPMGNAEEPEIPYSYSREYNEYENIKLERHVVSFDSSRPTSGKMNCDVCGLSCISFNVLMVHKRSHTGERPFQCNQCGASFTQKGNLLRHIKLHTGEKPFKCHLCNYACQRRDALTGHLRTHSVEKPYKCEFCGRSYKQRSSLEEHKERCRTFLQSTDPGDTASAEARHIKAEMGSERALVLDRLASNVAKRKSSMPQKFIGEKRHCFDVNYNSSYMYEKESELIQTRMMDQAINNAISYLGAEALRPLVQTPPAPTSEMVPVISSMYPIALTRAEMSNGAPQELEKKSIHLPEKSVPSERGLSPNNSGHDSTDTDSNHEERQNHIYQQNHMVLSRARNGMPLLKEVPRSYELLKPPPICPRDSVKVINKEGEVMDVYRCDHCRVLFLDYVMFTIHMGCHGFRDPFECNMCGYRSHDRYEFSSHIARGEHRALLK
Sequence of IKZF3 (Q96SW2 whole entry): as the sequence (Q96SW2 whole entry) above
Sequence of IKZF3 (Q16531 whole entry partner): as the sequence (Q16531 whole entry partner) above
Outline: as §2

[13] = target: GSPT1 (Homo sapiens (Human), UniProt P15170+Q96SW2); experiment: Western blot, substrate protein expression in hPBMC: GSPT1; type: cell-based; conditions: hPBMC, compound 500 nM, 24 hours, Western blot
Sequence of GSPT1 (P15170 whole entry): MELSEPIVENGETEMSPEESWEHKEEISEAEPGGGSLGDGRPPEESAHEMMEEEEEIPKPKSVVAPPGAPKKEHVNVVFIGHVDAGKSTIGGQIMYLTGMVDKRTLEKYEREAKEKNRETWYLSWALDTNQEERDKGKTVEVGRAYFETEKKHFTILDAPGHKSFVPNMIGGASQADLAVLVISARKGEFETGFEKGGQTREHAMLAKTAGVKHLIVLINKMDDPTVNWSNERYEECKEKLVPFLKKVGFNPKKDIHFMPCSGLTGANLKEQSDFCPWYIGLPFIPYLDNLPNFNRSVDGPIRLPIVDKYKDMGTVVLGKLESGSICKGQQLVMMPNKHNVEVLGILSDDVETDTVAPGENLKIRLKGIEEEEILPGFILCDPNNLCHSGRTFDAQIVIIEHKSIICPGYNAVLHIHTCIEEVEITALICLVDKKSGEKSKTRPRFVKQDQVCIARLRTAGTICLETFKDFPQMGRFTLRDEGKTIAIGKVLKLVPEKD
Sequence of GSPT1 (Q96SW2 whole entry): as the sequence (Q96SW2 whole entry) above
Sequence of GSPT1 (Q16531 whole entry partner): as the sequence (Q16531 whole entry partner) above
Outline: as §2

Structure (SMILES)	IC50 [1] [nM]	IC50 [2] [nM]	IC50 [3] [nM]	IC50 [4] [nM]	IC50 [5] [nM]	IC50 [6] [nM]	IC50 [7] [nM]	IC50 [8] [nM]	IC50 [9] [nM]	pIC50 [10]	substrate protein remaining % IKZF1 [11]	substrate protein remaining % IKZF3 [12]	substrate protein remaining % GSPT1 [13]
O=C1CCC(N2Cc3c(ccc(CN4CCN(C(c5ccccc5)c5ccccn5)CC4)c3F)C2=O)C(=O)N1 (stereo not drawn) [GT-03832, 3-(4-fluoro-1-oxo-5-((4-(phenyl(pyridin-2-yl)methyl)piperazin-1-yl)methyl)isoindolin-2-yl)piperidine-2,6-dione]	1 to 10	1 to 10	100 to 500	1 to 10	1 to 10	50 to 100	10 to 50	1 to 10	10 to 50	6.00 to 6.30	B (B represents substrate protein remaining % > 50%)	A (A represents 0% ≤ substrate protein remaining % ≤ 50%)	A (A represents 0% ≤ substrate protein remaining % ≤ 50%)
O=C1CCC(N2Cc3cc(CN4CCN(C(c5ccccc5)c5ccccn5)CC4)c(F)cc3C2=O)C(=O)N1 (stereo not drawn) [GT-03833, 3-(6-fluoro-1-oxo-5-((4-(phenyl(pyridin-2-yl)methyl)piperazin-1-yl)methyl)isoindolin-2-yl)piperidine-2,6-dione]	1 to 10	1 to 10	10 to 50	1 to 10	< 1	10 to 50	10 to 50	1 to 10	1 to 10	5.72 to 6.00	B (B represents substrate protein remaining % > 50%)	A (A represents 0% ≤ substrate protein remaining % ≤ 50%)	A (A represents 0% ≤ substrate protein remaining % ≤ 50%)
O=C1CCC(N2Cc3cc(CN4CCN(C(c5ccccc5)c5ccccn5)CC4)ccc3C2=O)C(=O)N1 (stereo not drawn) [GT-03835, 3-(1-oxo-5-((4-(phenyl(pyridin-2-yl)methyl)piperazin-1-yl)methyl)isoindolin-2-yl)piperidine-2,6-dione]	1 to 10	1 to 10	100 to 500	1 to 10	1 to 10	50 to 100	10 to 50	1 to 10	1 to 10	6.00 to 6.30	A (A represents 0% ≤ substrate protein remaining % ≤ 50%)	A (A represents 0% ≤ substrate protein remaining % ≤ 50%)	A (A represents 0% ≤ substrate protein remaining % ≤ 50%)
